Assay results from patent publication US7034026B2, “Inhibitors of Akt activity” (Merck & Co., Inc., priority 2001, dated 2006).

Tested on: PKC (mix of isoforms)
Assay: PKC assay (counter screen)
Format: biochemical
Details: myelin basic protein substrate, 10 μM ATP; read-out: Counter screens IC50 (μM) PKC
Procedure: Final assay concentrations were as follows: 0.25 mM EGTA, 0.4 mM CaCl, 20 mM Tris pH 7.5, 10 mM MgCl, 1 mM 2-mercaptoethanol, 0.32 mg/ml phosphatidylserine, 0.032 mg/ml diacylglycerol, 10 μM ^33P-ATP, 70 μg/ml MBP, 10 ng/ml PKC, 0.1 mg/ml BSA.
Assays are performed using 96 deep well assay plates. In each assay well 10 μl of solvent control or appropriate inhibitor dilution with 5 μl ^33P-ATP (components #5 and #3) were premixed. […] The liquid in the assay wells was thoroughly mixed and the assay reactions incubated for 20 minutes at room temperature. The reactions were stopped by adding 100 mM EDTA (50 μl) and 100 mM sodium pyrophosphate (50 μl) and mixing. Phosphorylated MBP was collected on PVDF membranes in 96 well filter plates and quantitated by scintillation counting.

## CC(C)(N)c1ccc(-c2nc3ccccc3nc2-c2ccccc2)cc1 [Compound 1, 2-[4-(2-aminoprop-2-yl)phenyl]-3-phenylquinoxaline]
  IC50: > 80 µM

## Nc1ccc(-c2nc3ccccc3nc2-c2ccc(N)cc2)cc1 [Compound 2, 2,3-bis(4-aminophenyl)-quinoxaline]
  IC50: > 80 µM
